Molecular target: T1, human RXFP1 (Homo sapiens, UniProt Q9HBX9)
T1 construct: expressed in transfected cells
T1 sequence (Q9HBX9 1-757): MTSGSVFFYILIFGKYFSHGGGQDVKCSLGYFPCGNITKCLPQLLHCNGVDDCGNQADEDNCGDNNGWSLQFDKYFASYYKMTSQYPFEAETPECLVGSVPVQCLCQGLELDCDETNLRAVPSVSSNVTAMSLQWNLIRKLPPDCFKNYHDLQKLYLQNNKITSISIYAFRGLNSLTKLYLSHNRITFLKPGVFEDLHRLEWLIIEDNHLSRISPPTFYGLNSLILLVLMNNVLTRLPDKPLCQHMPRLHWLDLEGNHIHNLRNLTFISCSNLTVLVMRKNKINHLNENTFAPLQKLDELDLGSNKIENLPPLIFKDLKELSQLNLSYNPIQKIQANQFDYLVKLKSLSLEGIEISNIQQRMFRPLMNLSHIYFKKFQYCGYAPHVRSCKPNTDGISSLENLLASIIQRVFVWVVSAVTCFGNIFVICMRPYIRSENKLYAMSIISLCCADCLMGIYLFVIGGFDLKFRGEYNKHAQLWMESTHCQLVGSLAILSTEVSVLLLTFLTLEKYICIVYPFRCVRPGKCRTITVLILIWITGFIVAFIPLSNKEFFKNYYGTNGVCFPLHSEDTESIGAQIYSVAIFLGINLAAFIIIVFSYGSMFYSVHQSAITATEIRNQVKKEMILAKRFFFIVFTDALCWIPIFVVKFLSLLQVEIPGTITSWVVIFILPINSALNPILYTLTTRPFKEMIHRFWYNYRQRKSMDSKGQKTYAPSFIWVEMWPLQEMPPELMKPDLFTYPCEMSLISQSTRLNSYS
Assay: hRXFP1 HEK293 cAMP assay (HTRF)
Format: cell-based
Conditions: HEK293 cells stably expressing human RXFP1, 30 min at room temperature
Procedure: RXFP1 Cyclic Adenosine Monophosphate (cAMP) Assays. […] Cells were dissociated and suspended in assay buffer. The assay buffer was HBSS buffer (with calcium and magnesium) containing 20 mM HEPES, 0.05% BSA, and 0.5 mM IBMX. Cells (3000 cells per well, except 1500 cell per well for HEK293 cells stably expressing human RXFP1) were added to 384-well Proxiplates (Perkin-Elmer). Cells were immediately treated with test compounds in DMSO (2% final) at final concentrations in the range of 0.010 nM to 50 μM. Cells were incubated for 30 min at room temperature. The level of intracellular cAMP was determined using the HTRF HiRange cAMP assay reagent kit (Cisbio) according to manufacturer's instructions. Solutions of cryptate conjugated anti-cAMP and d2 fluorophore-labelled cAMP were made in a supplied lysis buffer separately. Upon completion of the reaction, the cells were lysed with equal volume of the d2-cAMP solution and anti-cAMP solution. […] The potency and activity of a compound to […] cAMP production was then determined by fitting to a 4-parametric logistic equation from a plot of cAMP level versus compound concentrations.

In order of falling EC50:
1. COc1ccc(C2CC2C(=O)O)cc1C(=O)N[C@@H]1C2CCC(/C2=C/C(F)(F)F)[C@@H]1C(=O)Nc1ccc(F)c(C(F)(F)F)c1 (single isomer, unassigned) [Example 63]  4420 nM
2. COc1ccc(C2CCCC(NC(=O)C3CCOCC3)C2)cc1C(=O)N[C@@H]1C2CCC(/C2=C/C(F)(F)F)[C@@H]1C(=O)Nc1ccc(F)c(C(F)(F)F)c1 (single isomer, unassigned) [Example 50]  2350 nM
3. COc1ccc(C2CCCC(NC(=O)C3CCOCC3)C2)cc1C(=O)N[C@@H]1C2CCC(/C2=C/C(F)(F)F)[C@@H]1C(=O)Nc1ccc(F)c(C(F)(F)F)c1 (single isomer, unassigned) [Example 51]  2350 nM
4. COc1ccc(COC2CCC(OCc3ccccc3)CC2)cc1C(=O)N[C@@H]1C2CCC(/C2=C/C2CC2)[C@@H]1C(=O)Nc1ccc(F)c(C(F)(F)F)c1 (single isomer, unassigned) [Example 24]  1810 nM
5. COc1ccc(C2CCCCC2O)cc1C(=O)N[C@@H]1C2CCC(/C2=C/C(F)(F)F)[C@@H]1C(=O)Nc1ccc(F)c(C(F)(F)F)c1 (single isomer, unassigned) [Example 57]  1440 nM
6. COc1ccc(C2CCCCC2O)cc1C(=O)N[C@@H]1C2CCC(/C2=C/C(F)(F)F)[C@@H]1C(=O)Nc1ccc(F)c(C(F)(F)F)c1 (mixture of isomers) [Example 59]  1270 nM
7. COc1ccc(C(O)C(F)(F)F)cc1C(=O)NC1C2CCC(/C2=C/C(F)(F)F)[C@@H]1C(=O)Nc1ccc(F)c(C(F)(F)F)c1 (single isomer, unassigned) [Example 6]  1240 nM
8. COc1ccc(C2CCCCC2O)cc1C(=O)N[C@@H]1C2CCC(/C2=C/C(F)(F)F)[C@@H]1C(=O)Nc1ccc(F)c(C(F)(F)F)c1 (single isomer, unassigned) [Example 58]  1200 nM
9. COc1ccc(C(O)C(F)(F)F)cc1C(=O)NC1C2CCC(/C2=C/C(F)(F)F)[C@@H]1C(=O)Nc1ccc(F)c(C(F)(F)F)c1 (single isomer, unassigned) [Example 5]  1010 nM
10. COc1ccc(COC2CCC(OCc3ccccc3)CC2)cc1C(=O)N[C@@H]1C2CCC(/C2=C/C2CC2)[C@@H]1C(=O)Nc1ccc(F)c(C(F)(F)F)c1 (single isomer, unassigned) [Example 23]  993 nM
11. COC(=O)C1CC2(C1)CC(c1ccc(OC)c(C(=O)N[C@@H]3C4CCC(/C4=C/C(F)(F)F)[C@@H]3C(=O)Nc3ccc(F)c(C(F)(F)F)c3)c1)C2 (single isomer, unassigned) [Example 149]  857 nM
12. COc1ccc(C2CCCC(NC(=O)C3CCOCC3)C2)cc1C(=O)N[C@@H]1C2CCC(/C2=C/C(F)(F)F)[C@@H]1C(=O)Nc1ccc(F)c(C(F)(F)F)c1 (single isomer, unassigned) [Example 48]  833 nM
13. COc1ccc(C2CCCC(NC(=O)C3CCOCC3)C2)cc1C(=O)N[C@@H]1C2CCC(/C2=C/C(F)(F)F)[C@@H]1C(=O)Nc1ccc(F)c(C(F)(F)F)c1 (single isomer, unassigned) [Example 49]  833 nM
14. COc1ccc(C2CCCC(O)C2)cc1C(=O)N[C@@H]1C2CCC(/C2=C/C(F)(F)F)[C@@H]1C(=O)Nc1ccc(F)c(C(F)(F)F)c1 (single isomer, unassigned) [Example 37]  780 nM
15. COC(=O)C1CC2(C1)CC(c1ccc(OC)c(C(=O)N[C@@H]3C4CCC(/C4=C/C(F)(F)F)[C@@H]3C(=O)Nc3ccc(F)c(C(F)(F)F)c3)c1)C2 (single isomer, unassigned) [Example 150]  715 nM
16. COc1ccc(C2CCCC(O)C2)cc1C(=O)N[C@@H]1C2CCC(/C2=C/C(F)(F)F)[C@@H]1C(=O)Nc1ccc(F)c(C(F)(F)F)c1 (single isomer, unassigned) [Example 35]  667 nM
17. COc1ccc(C(C)CCO)cc1C(=O)N[C@@H]1C2CCC(/C2=C/C(F)(F)F)[C@@H]1C(=O)Nc1ccc(F)c(C(F)(F)F)c1 (single isomer, unassigned) [Example 60]  648 nM
18. COc1ccc(C(C)CCO)cc1C(=O)N[C@@H]1C2CCC(/C2=C/C(F)(F)F)[C@@H]1C(=O)Nc1ccc(F)c(C(F)(F)F)c1 (single isomer, unassigned) [Example 61]  603 nM
19. 2-(3-{[(2R,3S,7Z)- 3-{[4-fluoro-3- (trifluoromethyl)phe- nyl]carbamoyl}-7- (2,2,2- trifluoroethylidene)bi- cyclo[2.2.1]heptan- 2-yl]carbamoyl}-4- methoxyphenyl)ethyl N-phenylcarbamate [Example 56]  447 nM
20. COc1ccc(C2CCCC(O)C2)cc1C(=O)N[C@@H]1C2CCC(/C2=C/C(F)(F)F)[C@@H]1C(=O)Nc1ccc(F)c(C(F)(F)F)c1 (single isomer, unassigned) [Example 36]  442 nM
21. COc1ccc(C2CCC(O)CC2)cc1C(=O)NC1C2CCC(/C2=C/C(F)(F)F)[C@@H]1C(=O)Nc1ccc(F)c(C(F)(F)F)c1 (single isomer, unassigned) [Example 53]  396 nM
22. COc1ccc(C2CCC(O)CC2)cc1C(=O)NC1C2CCC(/C2=C/C(F)(F)F)[C@@H]1C(=O)Nc1ccc(F)c(C(F)(F)F)c1 (single isomer, unassigned) [Example 52]  276 nM
23. COc1ccc(C2CC2CO)cc1C(=O)N[C@@H]1C2CCC(/C2=C/C(F)(F)F)[C@@H]1C(=O)Nc1ccc(F)c(C(F)(F)F)c1 (single isomer, unassigned) [Example 64]  252 nM
24. COc1ccc(C2CCCC(O)C2)cc1C(=O)N[C@@H]1C2CCC(/C2=C/C(F)(F)F)[C@@H]1C(=O)Nc1ccc(F)c(C(F)(F)F)c1 (single isomer, unassigned) [Example 38]  250 nM
25. COc1ccc(C2CC2CO)cc1C(=O)N[C@@H]1C2CCC(/C2=C/C(F)(F)F)[C@@H]1C(=O)Nc1ccc(F)c(C(F)(F)F)c1 (single isomer, unassigned) [Example 65]  250 nM
26. COc1ccc(C2CCCC(OC(=O)Nc3ccccc3)C2)cc1C(=O)N[C@@H]1C2CCC(/C2=C/C(F)(F)F)[C@@H]1C(=O)Nc1ccc(F)c(C(F)(F)F)c1 (single isomer, unassigned) [Example 42]  214 nM
27. COc1ccc(C2CCCC(OC(=O)Nc3ccccc3)C2)cc1C(=O)N[C@@H]1C2CCC(/C2=C/C(F)(F)F)[C@@H]1C(=O)Nc1ccc(F)c(C(F)(F)F)c1 (single isomer, unassigned) [Example 41]  201 nM
28. COc1ccc(CC(C)CO)cc1C(=O)N[C@@H]1C2CCC(/C2=C/C(F)(F)F)[C@@H]1C(=O)Nc1ccc(F)c(C(F)(F)F)c1 (single isomer, unassigned) [Example 67]  193 nM
29. COc1ccc(C2CC2C(=O)O)cc1C(=O)N[C@@H]1C2CCC(/C2=C/C(F)(F)F)[C@@H]1C(=O)Nc1ccc(F)c(C(F)(F)F)c1 (single isomer, unassigned) [Example 62]  172 nM
30. 4-(3-{[(2R,3S,7Z)- 3-{[4-fluoro-3- (trifluoromethyl)phe- nyl]carbamoyl}-7- (2,2,2- trifluoroethylidene)bi- cyclo[2.2.1]heptan- 2-yl]carbamoyl}-4- methoxyphenyl)cyclo- hexyl N- phenylcarbamate [Example 54]  158 nM
31. COc1ccc(C2CCCC(OC(=O)Nc3ccccc3)C2)cc1C(=O)N[C@@H]1C2CCC(/C2=C/C(F)(F)F)[C@@H]1C(=O)Nc1ccc(F)c(C(F)(F)F)c1 (single isomer, unassigned) [Example 43]  157 nM
32. COc1ccc(CC(C)CO)cc1C(=O)N[C@@H]1C2CCC(/C2=C/C(F)(F)F)[C@@H]1C(=O)Nc1ccc(F)c(C(F)(F)F)c1 (single isomer, unassigned) [Example 66]  142 nM
33. COc1ccc(CCCO)cc1C(=O)NC1C2CCC(/C2=C/C2CCCOC2)[C@@H]1C(=O)Nc1ccc(F)c(C(F)(F)F)c1 (single isomer, unassigned) [Example 170, (7Z)-N-[4-fluoro-3-(trifluoromethyl)phe-nyl]-3-[5-(3-hydroxypropyl)-2-methoxybenzamido]-7-[(oxan-3-yl)methylidene]bicy-clo[2.2.1]heptane-2-carboxamide]  51 nM
34. COc1ccc(C2CCCC(OC(=O)Nc3ccccc3)C2)cc1C(=O)N[C@@H]1C2CCC(/C2=C/C(F)(F)F)[C@@H]1C(=O)Nc1ccc(F)c(C(F)(F)F)c1 (single isomer, unassigned) [Example 40]  19 nM

— patent US20250268903A1, “RXFP1 AGONISTS” (BRISTOL-MYERS SQUIBB COMPANY, priority 2021, published 2025)
